Where a name gives a salt, the structure may show the parent alone.
Biological target: T1, histamine H2-receptors (Rattus norvegicus, UniProt P25102)
T1 construct: histamine H2 -receptors was tested in Sprague-Dawley male rats; from tissue; host or cells: stomach of the living anesthetized Sprague-Dawley rat (in vivo perfused stomach)
Assay: blocking activity of histamine H2-receptors: antagonism of histamine-induced gastric acid secretion (perfused stomach, pH recording) in anesthetized rats
Type: in vivo
Conditions: iv, rapid i.v. injection (right femoral vein), histamine hydrochloride infusion 0.0552 mg/min/kg, ethyl carbamate anesthesia, male Sprague-Dawley rats
Procedure: The blocking qctivity of histamine H2 -receptors was tested in Sprague-Dawley male rats weighing 345±38 g. Animals which were subjected to a 24-hour hydric diet were tracheotomized under ethyl carbamate anesthesia (1 ml/100 g, 10% w/V i.p.). After cannulating the esophagus and stomach from duodenum, the gastric contents were drained. Then the esophageal cannual was connected to a peristaltic pump, under prior passage over a thermostatic batch at 37° C., and 1/800N sodium hydroxide solution in water flowed through. The cannula from the stomach was connected by a tube leading to a Ph-meter electrode, and the readings were graphically recorded. pH increase occurring by perfusion of the sodium hydroxide solution at 1.6 ml/min. rate is antagonized by continuous infusion of histamine hydrochloride through a catheter implanted in the right femoral vein (0.0552 mg/min/kg, 2 ml/hour). After calibrating the pH, test drugs are quickly injected into the right femoral vein. Under these conditions, the activities, expressed at ED50, of some compounds according to the present invention, are determined and set forth as follows, with cimetidine being employed for purposes of comparison: […]

T1 sequence (P25102 whole entry, the tested form may be a part): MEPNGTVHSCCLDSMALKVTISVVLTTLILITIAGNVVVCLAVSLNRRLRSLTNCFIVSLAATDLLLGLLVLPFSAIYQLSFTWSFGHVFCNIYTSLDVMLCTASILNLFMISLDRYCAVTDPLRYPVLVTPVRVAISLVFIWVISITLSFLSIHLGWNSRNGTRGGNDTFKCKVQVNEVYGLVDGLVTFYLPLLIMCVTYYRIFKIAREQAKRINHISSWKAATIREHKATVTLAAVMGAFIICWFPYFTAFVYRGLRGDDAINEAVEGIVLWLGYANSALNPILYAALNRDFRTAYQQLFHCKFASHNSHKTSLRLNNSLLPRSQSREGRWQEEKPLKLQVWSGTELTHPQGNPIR

Question: How did the ED50 turn out when Cc1ccc(S(=O)(=O)N=CNCCSCc2csc(N=C(N)N)n2)cc1 [Ex. 1, hydrogen maleate, N-p-toluensulphonyl-N'-[2-[[[2-[(aminoiminomethyl)amino]-4-thiazolyl]methyl]thio]ethyl]formamidine hydrogen maleate] was run?
Answer: The ED50 was 0.7 µmol/kg.

Question: With NC(N)=Nc1nc(CSCCNC=NS(=O)(=O)c2ccc([N+](=O)[O-])cc2)cs1 [Ex. 4, hydrogen maleate, N-p-nitrobenzenesulphonyl-N'-[2-[[[2-[(aminoiminomethyl)amino]-4-thiazolyl]methyl]thio]ethyl]formamidine hydrogen maleate] as the compound, how does the ED50 read?
Answer: Its ED50 is 0.61 µmol/kg.

Question: NC(N)=Nc1nc(CSCCNC=NS(=O)(=O)c2ccc(Cl)cc2)cs1 [Ex. 5, hydrogen maleate, N-p-chlorobenzenesulphonyl--N'-[2-[[[2-[(aminoiminomethyl)amino]-4-thiazolyl]methyl]thio]ethyl]formamidine hydrogen maleate] was tested. Which ED50 did it give?
Answer: Its ED50 is 0.75 µmol/kg.

Question: CS(=O)(=O)N=CNCCSCc1csc(N=C(N)N)n1 [Ex. 3, hydrogen maleate, N-methansulphonyl-N'-[2-[[[2-[(aminoiminomethyl)amino]-4-thiazolyl]methyl]thio]ethyl]formamidine hydrogen maleate] was tested. Which ED50 did it give?
Answer: The ED50 was 1.12 µmol/kg.

Question: With NC(N)=Nc1nc(CSCCNC=NS(=O)(=O)c2ccccc2)cs1 [Ex. 2, hydrogen maleate, N-benzenesulphonyl-N'-[2-[[[2-[(aminoiminomethyl)amino]-4-thiazolyl]methyl]thio]ethyl]formamidine hydrogen maleate] as the compound, how does the ED50 read?
Answer: Its ED50 is 1.77 µmol/kg.
